“Also recorded” adds a separate entry of the source.
Tests used:
isolated rat adipocytes = experiment: Glucose transport (2-deoxyglucose uptake) in isolated rat adipocytes; assay type: cell-based; conditions: for stimulation of glucose transport in the presence of semicarbazide: 1 mM semicarbazide; for stimulation of glucose transport in the presence of semicarbazide / stimulation of glucose transport (2-DG uptake): dihydrate; for stimulation of glucose transport (2-DG uptake): 45 min incubation
Method: In order to determine whether salts formed by vanadate and benzylamine could produce an insulin mimetic effect, the effect of increasing concentrations of hexaquis(benzylammonium) decavanadate on glucose transport activity in isolated rat adipocytes was tested. […] In similar assays, the activity of hexaquis(benzylammonium) decavanadate, pentaquis(benzylammonium) decavanadate and tetraquis(benzylammonium) decavanadate on glucose transport activity in isolated rat adipocytes were analyzed.
To determine the possible insulin mimetic effect of certain vanadium arylalkylamines, the capacity of these compounds to enhance glucose transport in isolated rat adipocytes was tested. Adipose cells from Wistar rats were incubated for 45 minutes in basal conditions (Basal) or in the presence of 100 nM insulin (Ins), and different concentrations of. hexaquis(benzylammonium) decavanadate (B6V10) in the absence or in the presence of 1 mM semicarbazide (SCZ). Subsequently, 2-DG transport was measured over a 5 min. interval.
The effects of the three tested compounds (B6V10, B5V10 and B4V10) were compared. Adipose cells from Wistar rats were incubated for 45 minutes in basal conditions (Basal) or in the presence of 100 nM insulin (Ins), and different concentrations of. decavanadate (V10), hexaquis(benzylammonium) decavanadate (B6V10), pentaquis(benzylammonium) decavanadate (B5V10) or tetraquis(benzylammonium) decavanadate (B4V10) in the absence or in the presence of 1 mM semicarbazide (SCZ). 2-DG transport was measured over 5 min. intervals. […]
(§1) The effects of incubation with semicarbazide or phosphatidylinositol 3-kinase inhibitors were also investigated. Adipose cells were incubated with B6V10 (25 μM, 45 min) in the absence or presence of wortmannin (2 μM, 45 min), LY294002 (10 μM, 45 min) or semicarbazide (1 mM, 45 min) and thereafter 2-deoxyglucose uptake was determined during 5 min.

[1] = tested on: isolated mouse adipocytes; experiment: Glucose transport (2-DG) in isolated mouse adipocytes; assay type: cell-based; conditions: 100 μM
Method: Adipose cells from FVB mice were incubated for 45 minutes in basal conditions (Basal) or in the presence of 100 nM insulin (Ins), and different concentrations of hexaquis(benzylammonium) decavanadate (B6V10) in the absence or in the presence of 1 mM semicarbazide (SCZ) and thereafter, 2-DG transport was measured over 5 min.

[2] = tested on: streptozotocin-induced diabetic rat with undetectable circulating insulin; experiment: Subcutaneous treatment of streptozotocin (100 mg/kg) diabetic rats with undetectable circulating insulin; assay type: in vivo
Method: Male Wistar rats weighting 180-220 g were purchased from Harlan (Interfauna Ibèrica S.A., Spain). Diabetes was induced by a single intraperitoneal injection of a freshly prepared solution of streptozotocin (in some studies the dose was 45 mg/kg body weight and in some others 100 mg/kg body weight dissolved in 50 mM citrate buffer, pH 4.5). Only diabetic animals with glycemia above 300 mg/dl were used. The animals were housed in animal quarters at 22° C., with a 12 h light/12 h dark cycle and were fed ad libitum. All procedures used were approved by the animal ethical committee of the University of Barcelona, Spain. Male mice C57 BL/Ks bearing the db/db mutation (Jackson Laboratories, Bar Harbor, Me.) were purchased from Harlan France (Gannat, France). C57BL/6J male mice were assigned for 16 weeks to very high-fat diet containing (in kcal): 72% from fat, 28% from proteins and <1% from carbohydrates (Burcelin et al., 2002, Am. J. Physiol. Endocrinol. Metab 282: E834-E842).
In glucose tolerance tests and in chronic treatments, circulating glucose concentrations were determined by a rapid glucose analyser (Accutrend® Sensor Comfort, Roche, Basel. Switzerland). Plasma insulin (IRI) concentration was determined by ELISA method using a kit obtained from Crystal Chem Inc. (Downers Grove, Ill.). Plasma triglycerides (Biosystems, Barcelona, Spain) and NEFAS (Wako Chemicals, Neuss, Germany) were determined with standard […] methods.
To this end, rats were made diabetic by the injection of a large dose of streptozotocin (100 mg/kg) that eliminates β-pancreatic insulin content. […] These streptozotocin-induced diabetic rats were subcutaneously treated with B6V10 (2.5 μmol/kg) (solid squares, FIG. 9A) delivered by osmotic minipumps or left untreated (solid circles, FIG. 9A). Sham-operated nondiabetic rats were also untreated (solid triangles, FIG. 9A).
The concentration of circulating glucose under these conditions was also assayed. After 28 days of treating diabetic rats with hexaquis(benzylammonium) decavanadate (2.5 μmol/kg) (wide striped bars, FIG. 9B), or with decavanadate (close striped bars, FIG. 9B) delivered by osmotic minipumps, plasma insulin and glucose were measured. Untreated diabetic (solid bars, FIG. 9B) or nondiabetic rats (open bars, FIG. 9B) were similarly assayed as controls.

protein kinase B = experiment: Protein kinase B phosphorylation in isolated rat adipocytes; assay type: cell-based
Method: Isolated fat cells were disrupted for total membrane preparation by hypo-osmotic lysis in a 20 mM HES buffer and an antiprotease and antiphosphatase cocktail as reported by Abella et al. (2003, Diabetes 52: 1004-1013). Protein concentrations were determined by the Bradford method (Bradford, 1976, Anal. Biochem. 72: 248-254) with gamma-globulin as protein concentration standard. Immunoprecipitation and immunoblot assays were performed as previously described by Abella et al. (2004, Id.) with the use of a monoclonal antiphosphotyrosine antibody for the immunoprecipitation and an anti-insulin receptor antibody for immunoblotting, respectively. SDS-polyacrylamide gel electrophoresis was performed on membrane proteins following conventional procedures. Proteins were transferred to Immobilon and immunoblotting was performed as reported by Castello et al. (1994, J. Biol. Chem. 269: 5905-5912).
The mechanism of action of B6V10 was investigated in isolated rat adipocytes. Adipose cells from Wistar rats were incubated for different times in the presence of 25 μM hexaquis(benzylammonium) decavanadate (B6V10). Cells were also incubated in the presence of insulin (100 nM, 45 min), decavanadate (25 μM, 45 min) or semicarbazide (1 mM, 45 min). Subsequently, 2-deoxyglucose uptake (results shown in FIG. 7A), tyrosine phosphorylation of insulin receptor (FIG. 7B), phospho-Thr^308-protein kinase B (FIG. 7C) and phospho-Ser^473-protein kinase B (FIG. 7D) was measured. […] The phosphorylation of protein kinase B induced by B6V10 was parallel to activation of glucose transport (FIG. 7C and 7D).
as §1

[3] = isolated rat adipocytes, listed as hexaquis(benzylammonium) decavanadate
[4] = isolated rat adipocytes, FIG. 1

hexaquis(benzylammonium) decavanadate (V) dihydrate [Entry B6V10]
stimulation of glucose transport at 25 μM compared with the combination of benzylamine and vanadate (isolated rat adipocytes; 25 μM vs 100 μM benzylamine and 100 μM vanadate, rat adipocytes): greater stimulation of glucose transport than the combination of 100 μM benzylamine and 100 μM vanadate | stimulation of glucose transport in the presence of semicarbazide (isolated rat adipocytes; isolated rat adipocytes): completely blocked by semicarbazide; also recorded: blocked in the presence of semicarbazide | stimulation of glucose transport in the presence of semicarbazide (isolated rat adipocytes; [3]): completely blocked by semicarbazide; also recorded: this effect was inhibited | stimulation of glucose transport (2-DG uptake) (isolated rat adipocytes; isolated rat adipocytes): stimulated glucose transport in rat adipocytes in a concentration-dependent manner | stimulation of glucose transport (2-DG uptake) (isolated rat adipocytes; [3]): pronounced stimulation on glucose transport | concentration from which stimulation of glucose transport was perceptible (isolated rat adipocytes; [4]): ≥ 0.5 µM | concentration of maximal effect on glucose transport (isolated rat adipocytes; [4]): 2.5 µM | EC50 (isolated rat adipocytes; isolated rat adipocytes, FIG. 1, read-out: concentration of semi-maximal effect on glucose transport): > 1000 nM | maximum effect on glucose transport compared with benzylamine and vanadate in combination (isolated rat adipocytes; isolated rat adipocytes, combination 100 μM sodium vanadate and 100 μM benzylamine (FIG. 1)): greater than that produced by the presence of benzylamine and vanadate in combination | maximal effect on glucose transport as % of the maximal stimulation caused by insulin (isolated rat adipocytes; rat adipocytes, 100 nM insulin): 85% | stimulation of glucose transport (% increase) [1]: 93% | glycemia in diabetic rats with undetectable insulin ([2]; 2.5 μmol/kg subcutaneous minipumps, STZ 100 mg/kg, dihydrate): markedly effective in lowering hyperglycemia; also recorded: reducing glycemia; also recorded: significant differences between the B6V10 and the untreated groups; also recorded: antidiabetic effects | plasma glucose and insulin after 28 days of treatment ([2]; 2.5 μmol/kg, osmotic minipumps, STZ 100 mg/kg): plasma glucose was reduced even without any observable change in the amount of insulin | body weight or organ weights ([2]; chronic treatment with therapeutic doses): did not affect body weight or organ weights | protein kinase B phosphorylation (protein kinase B; 25 μM, rat adipocytes): rapidly stimulated protein kinase B | time at which protein kinase B phosphorylation was detectable (protein kinase B; 25 μM, rat adipocytes): ≤ 2.5 min | protein kinase B phosphorylation in the presence of semicarbazide (protein kinase B; B6V10 25 μM, semicarbazide 1 mM, 45 min): blocked by semicarbazide

— patent publication US20070066682A1, “Arylalkylamine vanadium (V) salts for the treatment and/or prevention of Diabetes mellitus” (priority 2005, published 2007)
